Legend:
MDR1-MDCKII cells = test: GCS inhibition (GlcCer production) in MDCKII cells stably expressing human MDR1; assay type: cell-based, canine; conditions: for IC50: Canis lupus familiaris, inhibition of GlcCer production in MDCKII cells stably expressing human MDR1, 24 h, read-out: MDR-MDCK IC50; for MDR/WT: ratio of MDR1-MDCKII IC50 divided by WT-MDCKII IC50
Protocol: (§1) Parental (WT-)MDCKII cells and MDCKII cells retrovirally transduced with human MDR-1 cDNA were obtained from the Netherlands Cancer Institute. Both cell lines were routinely maintained in medium consisting of Opti-MEM/F 12 (1:1), 5% FBS, 100 U/mL of penicillin, 100 μg/mL streptomycin and […] L-glutamine. MDCKII cells were newly thawed from frozen ampules every two months.
Stock solutions of water-insoluble glycosphingolipid inhibitors (100 mM) were prepared by dissolving each inhibitor into 100% ethanol as previously described (3). The inhibitor-ethanol solutions then were diluted 50× into 2 mM delipidated bovine serum albumin-phosphate buffered saline solution to make water-soluble glycosphingolipid inhibitor-bovine serum albumin complexes. The inhibitor-bovine serum album complexes were sterile-filtered and stored at −20° C. Prior to use, portions of the inhibitor-bovine serum albumin complexes were further diluted with Opti-F12 to make treatment solutions. Equal amounts of bovine serum albumin and ethanol were added into the control cultures. WT and MDR1-MDCKII cells (5×10^5) were seeded into 10-cm culture dishes containing 10 ml of Opti-F12 with 5% FBS. […]
(§2) Following inhibitor treatment, whole cellular lipids of wild type and MDR1-MDCKII cells were extracted as previously described in detail (10). Briefly, cells were washed with ice-cold phosphate buffered saline, fixed by methanol, and collected with rubber scraper. Chloroform was then added to yield a theoretical ratio of chloroform:methanol:water at 1:2:0.8 (v/v/v) to form a mono-phase. Cell debris and proteins were removed by centrifugation at 2200×g for 30 min. The supernatants were portioned by adding chloroform and 0.9% NaCl. The lower organic phases containing neutral glycosphingolipids lipids were washed with methanol and 0.9% NaCl, and subjected to base- and acid-hydrolysis (10). A portion of purified glycosphingolipids normalized to 100 nmol of total phospholipids was analyzed by high performance thin layer chromatography. The thin layer chromatography separations were processed twice. The plate pretreated with 1% sodium borate was first developed in a solvent system consisting of chloroform/methanol (98/2, v/v). After air drying, the plate was then developed in a solvent system containing chloroform/methanol/water (70/30/4, v/v/v). The levels of glucosylceramide were detected by charring with 8% cupric sulfate in 8% phosphoric acid, and quantified by densitometric scanning using ImageJ, NIH Image.

WT-MDCKII cells = test: GCS inhibition (GlcCer production) in whole wild-type MDCKII cells; assay type: cell-based, canine; conditions: Canis lupus familiaris, MDCK-II; inhibition of GlcCer production in whole wild-type MDCKII cells, 24 h; read-out: WT-MDCK IC50
Protocol: as §1, with “months. Protein levels of MDR1 in MDR1-MDCKII cells were measured monthly, and MDR1-MDCKII cell passages were immediately terminated when a reduction of MDR1 levels was observed by Western blot using anti-human MDR1 monoclonal antibody (Abcam C219).” for “months.”
Stock solutions of water-insoluble glycosphingolipid inhibitors (100 mM) were prepared by dissolving each inhibitor into 100% ethanol as previously described (3). The inhibitor-ethanol solutions then were diluted 50× into 2 mM delipidated bovine serum albumin-phosphate buffered saline solution to make water-soluble glycosphingolipid inhibitor-bovine serum albumin complexes. The inhibitor-bovine serum album complexes were sterile-filtered and stored at −20° C. Prior to use, portions of the inhibitor-bovine serum albumin complexes were further diluted with Opti-F12 to make treatment solutions. Equal amounts of bovine serum albumin and ethanol were added into the control cultures. WT and MDR1-MDCKII cells (5×10^5) were seeded into 10-cm culture dishes containing 10 ml of Opti-F12 with 5% FBS. After 24 hours, the medium was replaced with fresh serum-free Opti-F12 medium, and cells were exposed to candidate GCS inhibitors at concentrations of 0, 1, 3, 10, 30, 100 and 300 nM for 24 hours.
as §2, with “Image. Image data was analyzed, and the IC50 of each inhibitor was calculated using GraphPad Prism (version 5.03).” for “Image.”

[1] = biological target: T1, glucosylceramide synthase (GCS) (Canis lupus familiaris, UniProt A0A8I3MXG6); test: GCS activity, broken cell (MDCK cell homogenate) assay; assay type: biochemical, canine
T1 construct: Madin-Darby canine kidney (MDCK) cell homogenates (120 μg of protein) were incubated; endogenous in cells; host or cells: MDCK (Madin-Darby canine kidney) cell homogenate
T1 sequence (A0A8I3MXG6 1-394): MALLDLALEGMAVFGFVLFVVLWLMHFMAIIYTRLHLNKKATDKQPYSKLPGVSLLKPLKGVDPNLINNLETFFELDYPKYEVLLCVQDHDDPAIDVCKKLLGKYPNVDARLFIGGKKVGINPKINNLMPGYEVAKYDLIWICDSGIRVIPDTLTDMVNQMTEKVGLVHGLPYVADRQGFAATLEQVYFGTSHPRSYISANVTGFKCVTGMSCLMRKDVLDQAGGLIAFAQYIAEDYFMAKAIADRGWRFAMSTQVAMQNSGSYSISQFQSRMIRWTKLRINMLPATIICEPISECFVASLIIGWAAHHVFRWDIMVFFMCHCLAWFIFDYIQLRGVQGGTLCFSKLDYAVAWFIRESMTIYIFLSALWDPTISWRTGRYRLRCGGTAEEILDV
Protocol: Enzyme activity was measured as described previously (9). Madin-Darby canine kidney (MDCK) cell homogenates (120 μg of protein) were incubated with uridine diphosphate-[^3H]glucose (100,000 cpm) and liposomes consisting of 85 μg of octanoylsphingosine, 570 μg of dioleoylphosphatidylcholine, and 100 μg of sodium sulfatide in a 200 μL reaction mixture and kept for 1 h at 37° C.

[2] = cited from earlier work
MDR1 = biological target: T2, MDR1 (Homo sapiens, UniProt P08183); test: [3H]Vinblastine transport in MDR1-MDCKII cells; assay type: cell-based; conditions: 1-100 μM, 2 h, relative to vehicle
T2 construct: host or cells: MDCKII (canine kidney) cells retrovirally transduced with human MDR-1 cDNA
Protocol: MDR1- and WT-MDCKII cells were grown to confluence on Transwell filters (12 well plates) in DMEM+10% FBS. […] Uptake was measured over 2 hours at 37° C. At that time, uptake was stopped by washing each side of the membrane 3× with ice-cold PBS. Vinblastine uptake into the cells, after correction for any remaining adherent extracellular contamination, was calculated as described previously (11). To investigate the effect of experimental drugs on MDR-mediated transport, those compounds were added to the apical chamber (1-100 μM) during vinblastine uptake and the uptake results expressed as a % of that with vehicle alone.

T2 sequence (P08183 whole entry): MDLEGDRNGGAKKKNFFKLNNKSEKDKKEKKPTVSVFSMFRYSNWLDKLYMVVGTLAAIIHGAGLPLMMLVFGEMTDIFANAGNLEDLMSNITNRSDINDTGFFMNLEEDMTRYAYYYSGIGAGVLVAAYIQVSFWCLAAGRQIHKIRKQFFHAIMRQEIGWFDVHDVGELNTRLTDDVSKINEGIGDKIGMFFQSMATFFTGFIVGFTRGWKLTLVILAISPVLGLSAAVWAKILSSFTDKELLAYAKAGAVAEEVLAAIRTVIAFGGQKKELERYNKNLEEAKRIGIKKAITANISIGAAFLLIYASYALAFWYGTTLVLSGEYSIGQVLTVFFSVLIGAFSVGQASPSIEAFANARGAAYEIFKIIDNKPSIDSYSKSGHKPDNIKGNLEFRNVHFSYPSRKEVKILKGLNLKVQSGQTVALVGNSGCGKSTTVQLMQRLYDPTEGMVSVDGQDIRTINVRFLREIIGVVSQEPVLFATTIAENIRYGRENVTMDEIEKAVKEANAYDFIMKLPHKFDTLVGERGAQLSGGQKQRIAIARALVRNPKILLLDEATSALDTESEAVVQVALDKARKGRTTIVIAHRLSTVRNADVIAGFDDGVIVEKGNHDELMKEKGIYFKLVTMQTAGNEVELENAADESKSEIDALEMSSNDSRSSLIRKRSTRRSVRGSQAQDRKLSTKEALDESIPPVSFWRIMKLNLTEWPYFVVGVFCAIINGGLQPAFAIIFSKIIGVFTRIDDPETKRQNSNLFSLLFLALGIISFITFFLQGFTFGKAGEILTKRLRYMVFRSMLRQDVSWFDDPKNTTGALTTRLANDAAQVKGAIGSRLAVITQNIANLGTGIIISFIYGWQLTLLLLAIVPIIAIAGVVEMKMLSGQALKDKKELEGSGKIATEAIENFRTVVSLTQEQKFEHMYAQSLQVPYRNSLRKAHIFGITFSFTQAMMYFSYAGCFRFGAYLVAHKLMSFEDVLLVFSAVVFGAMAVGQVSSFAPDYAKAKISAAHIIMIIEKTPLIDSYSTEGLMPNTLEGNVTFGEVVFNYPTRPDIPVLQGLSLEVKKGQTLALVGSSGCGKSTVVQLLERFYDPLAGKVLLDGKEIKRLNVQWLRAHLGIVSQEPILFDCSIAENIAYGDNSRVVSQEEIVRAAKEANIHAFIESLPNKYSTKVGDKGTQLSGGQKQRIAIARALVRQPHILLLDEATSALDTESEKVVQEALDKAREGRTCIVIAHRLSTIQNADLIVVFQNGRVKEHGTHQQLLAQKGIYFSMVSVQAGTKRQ

Compound `O=C(N[C@H](CN1CCCC1)[C@H](O)c1ccc2c(c1)OCCO2)OCc1ccccc1` [Compound 3b] has an IC50 (MDR1-MDCKII cells) of 47.1 nM, an MDR/WT (MDR1-MDCKII cells) of 6.5 and an IC50 (WT-MDCKII cells) of 7.3 nM. The IC50 [1] was 144 nM.
For `CCCCN1C[C@H](O)[C@@H](O)[C@H](O)[C@H]1CO` [NB-DNJ, N-butyldeoxynojirimycin], the “effect on mouse body weight” value [2] is given as “reduce mouse body weight”.
Compound `O=C(Cc1ccccc1)N[C@H](CN1CCCC1)[C@H](O)c1ccc2c(c1)OCCO2` [Compound 3d, N-((1R,2R)-1-(2,3-dihydrobenzo[b][1,4]dioxin-6-yl)-1-hydroxy-3-(pyrrolidin-1-yl)propan-2-yl)-2-phenylacetamido] has an IC50 [1] of over 2000 nM.
With `O=C(CCCc1ccccc1)N[C@H](CN1CCCC1)[C@H](O)c1ccc2c(c1)OCCO2` [Compound 3e] the IC50 (MDR1-MDCKII cells) was 1440 nM, the MDR/WT (MDR1-MDCKII cells) was 5.7 and the IC50 (WT-MDCKII cells) was 254 nM. For the same compound, the IC50 [1] was 80 nM.
With `O=C(N[C@H](CN1CCCC1)[C@H](O)c1ccc2c(c1)OCCO2)C1CC1c1ccccc1` (stereo partly drawn) [Compound 3g, N-((1R,2R)-1-(2,3-dihydrobenzo[b][1,4]dioxin-6-yl)-1-hydroxy-3-(pyrrolidin-1-yl)propan-2-yl)-2-phenylcyclopropanecarboxamide] the IC50 (MDR1-MDCKII cells) was 78.1 nM, the MDR/WT (MDR1-MDCKII cells) was 2.9 and the IC50 (WT-MDCKII cells) was 27.3 nM. It also gave an IC50 [1] of 90 nM.
Work on `O=C(CCc1ccccc1)N[C@H](CN1CCCC1)[C@H](O)c1ccc2c(c1)OCCO2` [Compound 3c] yielded an IC50 (MDR1-MDCKII cells) of 86.7 nM, an MDR/WT (MDR1-MDCKII cells) of 3.7 and an IC50 (WT-MDCKII cells) of 23.5 nM. It also gave an IC50 [1] of 134 nM.
In the case of `O=C(/C=C/c1ccccc1)N[C@H](CN1CCCC1)[C@H](O)c1ccc2c(c1)OCCO2` [Compound 3f, N-((1R,2R)-1-(2,3-dihydrobenzo[b][1,4]dioxin-6-yl)-1-hydroxy-3-(pyrrolidin-1-yl)propan-2-yl)cinnamamide], the IC50 (MDR1-MDCKII cells) is reported as 389 nM, the MDR/WT (MDR1-MDCKII cells) is reported as 4.8 and the IC50 (WT-MDCKII cells) is reported as 80.7 nM. The IC50 [1] was 379 nM.
With `O=C(N[C@H](CN1CCCC1)[C@H](O)c1ccc2c(c1)OCCO2)C1Cc2ccccc2C1` [Compound 3i, N-((1R,2R)-1-(2,3-dihydrobenzo[b][1,4]dioxin-6-yl)-1-hydroxy-3-(pyrrolidin-1-yl)propan-2-yl)-2,3-dihydro-1H-indene-2-carboxamide] the IC50 (MDR1-MDCKII cells) was 3210 nM, the “activity in the MDR1-MDCKII line” value (MDR1-MDCKII cells; in words) was “loss of activity” and the MDR/WT (MDR1-MDCKII cells) was 21. For the same compound, the “[3H]vinblastine uptake into MDR1-MDCKII cells” value (MDR1) was “dose dependent increase”, the IC50 (WT-MDCKII cells) was 151 nM and the IC50 [1] was 107 nM.
With `CN(C(=O)CCc1ccccc1)[C@H](CN1CCCC1)[C@H](O)c1ccc2c(c1)OCCO2` [Compound 3j, N-((1R,2R)-1-(2,3-dihydrobenzo[b][1,4]dioxin-6-yl)-1-hydroxy-3-(pyrrolidin-1-yl)propan-2-yl)-N-methyl-3-phenylpropanamide] the IC50 (MDR1-MDCKII cells) was 1250 nM, the MDR/WT (MDR1-MDCKII cells) was 21 and the IC50 (WT-MDCKII cells) was 59.4 nM. For the same compound, the IC50 [1] was 158 nM.

From patent US8961959B2, “Glucosylceramide synthase inhibitors and therapeutic methods using the same” (The Regents of the University of Michigan, priority 2011, dated 2015)
